Measurements taken from patent US5506359A, “Cocaine analogues and their use as cocaine drug therapies and therapeutic and imaging agents for neurodegenerative disorders” (priority 1993, dated 1996).

Tests used:
[1] = system: squirrel monkeys (i.v. drug self-administration); assay: Drug self-administration under second order schedule; assay type: in vivo, squirrel monkeys (Saimiri sciureus)
From the text: To determine whether CFT also mimicked cocaine's behavioral effects in vivo (specifically the reinforcing and interoceptive effects), squirrel monkeys were trained to respond under a second order schedule of i.v. drug self-administration (see detailed description below). […] The results were consistent with the view that the reinforcing effects of cocaine are mediated by cocaine recognition sites associated with the dopamine uptake system.
For drug discrimination and self administration studies, experiments are conducted with rodents or squirrel monkeys (Saimiri sciureus) seated in standard primate chairs enclosed in ventilated, sound-attenuating chambers. The chairs are equipped with response levers, stimulus lights, food pellet dispensers, and pumps for injecting drugs intravenously. […] Response rates and temporal patterns of responding are monitored continuously during daily experimental sessions. Effects of drugs are analyzed in individual subjects by comparing performances during drug sessions with those during control sessions. […]
Initially, responding is maintained using an injection dose of 100 μg/kg cocaine, which usually is optimal for developing i.v. self-administration.After consistent rates and patterns of responding are maintained by cocaine, the effects of a full range of doses of cocaine and of selected candidate drugs is determined. […]

[2] = system: squirrel monkeys trained to discriminate cocaine; assay: Drug discrimination (cocaine versus saline); assay type: in vivo, squirrel monkeys (Saimiri sciureus); settings: training dose cocaine 0.3-0.56 mg/kg
Method: The subjective (interoceptive) effects of cocaine were studied in monkeys through the use of a drug discrimination procedure. […] Squirrel monkeys were trained to discriminate cocaine (0.3-0.56 mg/kg) from saline using a two-level choice procedure.
For drug discrimination and self administration studies, experiments are conducted with rodents or squirrel monkeys (Saimiri sciureus) seated in standard primate chairs enclosed in ventilated, sound-attenuating chambers. The chairs are equipped with response levers, stimulus lights, food pellet dispensers, and pumps for injecting drugs intravenously. Four animals are studied in each experiment, with each subject receiving all drug treatments whenever possible. Response rates and temporal patterns of responding are monitored continuously during daily experimental sessions. Effects of drugs are analyzed in individual subjects by comparing performances during drug sessions with those during control sessions. […]
Drug discrimination experiments are conducted using cumulative-dose procedures similar to those described in Madras et al. (Soc. Neurosci. Abst. 16:14, 1990; Pharmacol. Biochem. Behav. 35:949-953, 1990) and Spealman et al. (J. Pharmacol. Exp. Ther. 258:945-953, 1991). […] Good agreement has been found between the effects of drugs determined by cumulative-dose procedures and by single-dose procedures when appropriate parameters are selected. […]

[3] = target: dopamine transporter, human caudate nucleus and putamen (Homo sapiens, UniProt Q01959); assay: [^3 H]CFT binding to homogenates of human caudate nucleus and putamen; settings: human caudate nucleus and putamen homogenates
From the text: In order to determine whether [^3 H]CFT labels sites associated with the dopamine transporter, the binding of [^3 H]CFT to homogenates of human caudate nucleus and putamen, was characterized.

[4] = system: [^3 H]CFT binding sites in monkey caudate-putamen; settings: cited from earlier work

Sequence of dopamine transporter, human caudate nucleus and putamen (Q01959 whole entry): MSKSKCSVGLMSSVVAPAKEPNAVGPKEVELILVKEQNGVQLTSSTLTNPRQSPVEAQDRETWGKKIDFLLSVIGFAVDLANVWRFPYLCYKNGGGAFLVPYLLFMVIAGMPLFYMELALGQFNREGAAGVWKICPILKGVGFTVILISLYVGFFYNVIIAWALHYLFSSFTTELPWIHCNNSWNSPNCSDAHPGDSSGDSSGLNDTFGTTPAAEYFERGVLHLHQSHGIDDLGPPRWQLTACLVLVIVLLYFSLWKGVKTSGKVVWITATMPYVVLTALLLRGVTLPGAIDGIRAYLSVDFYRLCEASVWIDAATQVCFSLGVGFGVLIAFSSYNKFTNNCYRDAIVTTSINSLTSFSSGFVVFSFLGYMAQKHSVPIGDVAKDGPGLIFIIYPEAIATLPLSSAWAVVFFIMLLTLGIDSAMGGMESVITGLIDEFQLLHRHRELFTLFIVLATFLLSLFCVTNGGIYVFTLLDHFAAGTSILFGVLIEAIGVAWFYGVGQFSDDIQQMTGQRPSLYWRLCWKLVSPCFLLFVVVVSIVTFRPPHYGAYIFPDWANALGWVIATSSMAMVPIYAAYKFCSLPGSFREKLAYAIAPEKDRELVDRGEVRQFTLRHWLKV

Question: With `COC(=O)[C@H]1[C@@H](c2ccc(F)cc2)C[C@@H]2CC[C@H]1N2C` [4'a (CFT), 2β-carbomethoxy-3β-(4-fluorophenyl)tropane] as the compound, how does the “potency in maintaining responding relative to cocaine” value [1] read?
Answer: approximately six

Question: And the “generalization to cocaine cue” value [2]?
Answer: fully generalized to the cocaine cue

Question: What about the “rank order of potency for inhibiting [^3 H]CFT binding” value [3] of the same compound?
Answer: Lu 19-005>CFT, mazindol, GBR 12909>(-)-cocaine>bupropion>(+)-cocaine

Question: And the “extent of displacement of [^3 H]CFT” value [4]?
Answer: full displacement of [^3 H]CFT

Question: And the “number of binding components” value ([4]; competition curves)?
Answer: at least two binding components

Question: And the “steepness of competition curve” value ([4]; displacement of [^3 H]CFT)?
Answer: 0.61-0.89
